The results in this text go back to US10898567B2, “Synthetic long peptides (SLP) for therapeutic vaccination against Hepatitis B virus infection” (priority 2014, dated 2021).

The test system of the assay is PBMC derived from HBV-immune donors. Format: cell-based, human. Conditions: six HBV-immune donors; for positive IFNγ response (SI>3) in HBV-immune donors / IFNγ response in multiple HBV-immune donors: IFNγ-ELISpot; for average SI of the IFNγ-responses: PBMC pre-stimulated with 3 nmol/ml peptide for 72 hours; for IFNγ response in multiple HBV-immune donors: SI>3. The protocol:
To detect antigen-specific IFNγ-producing human T cells, the PBMC were first pre-stimulated with 3 nmol/ml of the indicated peptide for 72 hours at 37° C. […] After stimulation of the PBMC, the coating antibody was aspirated from the plate, and washed 4 times with PBS. To block aspecific binding, 100 μl of IMDM containing 8% FCS was added to all wells and incubated at 37° C. for 1 hour. In the meantime, stimulated PBMC were harvested, centrifuged, resuspended in X-vivo 15 medium (Lonza) and counted. […] The medium in the wells of the PVDF plate was aspirated and 100 μl of each PBMC sample was added to the plate in quadruplicates. The plates were incubated at 37° C. overnight. The next day, the supernatant was discarded and plates are washed 6 times with PBS/Tween20 0.05%. […] Next, plates were washed 6 times using PBS/Tween20 0.05% and 1 μg/ml Extravidin-Alkaline phosphatase (ALP) (Sigma-Aldrich) was added to all wells (100 μl/well) in PBS with 1% FBS. The plates were incubated for 1 hour at RT. ALP substrate solution BCIP/NBT-plus (Mabtech) was prepared and 100 μl/well was added to all wells after the plates were washed 4 times with PBS/Tween20 0.05%. To terminate the colorimetric reaction (after 1-20 minutes), tap water was used to wash the plates extensively. After drying, the formed spots were measured on a Biosys Bioreader 5000.
To assess the relevance of the selected vaccine peptides for the clearance of a naturally occurring HBV infection, we tested the presence of T cell responses against the 13 selected HBV peptides in PBMC derived from six HBV-immune donors. After isolation of the PBMC, cells were stimulated with each of the 13 peptides and an IFNγ-ELISpot was performed to detect T cell responses.

For “ALPSPSPSAVPADHGAHLSLRGLPVCAFSSAGP [SLP26]”, the “positive IFNγ response (SI>3) in HBV-immune donors” value (“positive IFNγ response” for short) was “Responses were observed” and the “average SI of the IFNγ-responses” value came out at 1.56.

As for “CAFSSAGPCALRFTSARRMETTVNAHQILPKVLHK [SLP27]”, the “positive IFNγ response” value is “Responses were observed”.

In the case of “DPASRDLVVNYVNTNVGLKIRQLLWFHISCLTFGR (HBV Core aa 107 - 141 (SLP No. 24)) [SLP24]”, the “positive IFNγ response” value is “Responses were observed”, the “IFNγ response in multiple HBV-immune donors” value is “induced responses in multiple donors” and the “average SI of the IFNγ-responses” value is recorded as 2.54.

With “HDSCSRQLYVSLMLLYKTYGWKLHLYSHPIVLGF (HBV Polymerase aa 481 - 514 (SLP No. 13)) [SLP13]”, the “positive IFNγ response” value was “Responses were observed”, the “IFNγ response in multiple HBV-immune donors” value is reported as “induced responses in multiple donors” and the “average SI of the IFNγ-responses” value was 2.44.

Consider “MPLSYQHFRKLLLLDDGTEAGPLEEELPRL (HBV Polymerase aa 1 - 30 (SLP No. 1)) [SLP1]”, for which the “average SI of the IFNγ-responses” value worked out at 1.21.

Take “NLLSSNLSWLSLDVSAAFYHIPLHPAAMPHLLIGSSGL (HBV Polymerase aa 419 - 456 (SLP No. 10)) [SLP10]”: the “positive IFNγ response” value is given as “Responses were observed”, the “IFNγ response in multiple HBV-immune donors” value is reported as “induced responses in multiple donors” and the “average SI of the IFNγ-responses” value is 2.40.

For the sequence “SPFLLAQFTSAICSVVRRAFPHCLAFSYMDDVVLGA (HBV Polymerase aa 524 - 559 (SLP No. 14)) [SLP14]”, the “positive IFNγ response” value is reported as “Responses were observed” and the “average SI of the IFNγ-responses” value amounted to 1.97.

For the sequence “SSWAFAKYLWEWASVRFSWLSLLVPFVQWFV (HBV large surface protein aa 328-358) [SLP34]”, the “positive IFNγ response” value is “Responses were observed”, the “IFNγ response in multiple HBV-immune donors” value was “induced responses in multiple donors” and the “average SI of the IFNγ-responses” value worked out at 3.02.

With “VVNHYFQTRHYLHTLWKAGILYKRETTRSASFCGSPYSW (HBV Polymerase aa 139 - 177 (SLP No. 5)) [SLP5]”, the “positive IFNγ response” value is given as “Responses were observed” and the “average SI of the IFNγ-responses” value came out at 2.11.

As for “YPALMPLYACIQAKQAFTFSPTYKAFLSKQYMNLYPVAR (HBV Polymerase aa 653 - 691 (SLP No. 18)) [SLP18]”, the “positive IFNγ response” value is reported as “Responses were observed” and the “average SI of the IFNγ-responses” value is 1.86.
